# In US7790738B2, “Methods of treating and preventing AIDS using of COX-2 inhibitors” (Lauras AS, priority 2000, dated 2010):
# Values joined by “and” are separate entries in the source; they are usually repeats but may differ in a detail not shown here. Equal values may be shown once. Read-outs that look alike come from different tables or passages of the source. Marks after values point to notes of the source that are not given here.
# Assays:
# COX-1 [1] = biological target: T1, COX-1 (Bos taurus, UniProt O62664)
# T1 construct: IC50 values for NSAID's in intact cell on COX-1; endogenous in cells; host or cells: bovine endothelial cells
# T1 sequence (O62664 25-600): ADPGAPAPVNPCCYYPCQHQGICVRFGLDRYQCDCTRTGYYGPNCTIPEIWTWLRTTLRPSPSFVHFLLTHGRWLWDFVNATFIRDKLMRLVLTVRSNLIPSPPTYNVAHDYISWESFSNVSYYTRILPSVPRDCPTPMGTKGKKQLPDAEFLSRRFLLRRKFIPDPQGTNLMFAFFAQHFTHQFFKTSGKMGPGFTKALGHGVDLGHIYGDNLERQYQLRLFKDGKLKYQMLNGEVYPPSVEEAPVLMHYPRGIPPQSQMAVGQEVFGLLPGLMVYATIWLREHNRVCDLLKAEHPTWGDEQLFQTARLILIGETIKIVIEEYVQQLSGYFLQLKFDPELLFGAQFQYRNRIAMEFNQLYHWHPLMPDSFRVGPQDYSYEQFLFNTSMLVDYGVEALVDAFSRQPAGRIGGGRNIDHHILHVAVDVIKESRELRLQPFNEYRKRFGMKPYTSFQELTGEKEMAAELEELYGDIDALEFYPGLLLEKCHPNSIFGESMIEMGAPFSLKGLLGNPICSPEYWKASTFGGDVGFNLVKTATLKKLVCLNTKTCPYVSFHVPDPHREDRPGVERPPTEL
# COX-1 [2] = biological target: COX-1 (Cavia porcellus, UniProt H0V9X9); conditions: read-out: COX-1 IC50; guinea pig macrophage model; Engelhart et al. 1995; cited from earlier work
# Sequence of COX-1 (Cavia porcellus, UniProt H0V9X9) (H0V9X9 entry or part of it): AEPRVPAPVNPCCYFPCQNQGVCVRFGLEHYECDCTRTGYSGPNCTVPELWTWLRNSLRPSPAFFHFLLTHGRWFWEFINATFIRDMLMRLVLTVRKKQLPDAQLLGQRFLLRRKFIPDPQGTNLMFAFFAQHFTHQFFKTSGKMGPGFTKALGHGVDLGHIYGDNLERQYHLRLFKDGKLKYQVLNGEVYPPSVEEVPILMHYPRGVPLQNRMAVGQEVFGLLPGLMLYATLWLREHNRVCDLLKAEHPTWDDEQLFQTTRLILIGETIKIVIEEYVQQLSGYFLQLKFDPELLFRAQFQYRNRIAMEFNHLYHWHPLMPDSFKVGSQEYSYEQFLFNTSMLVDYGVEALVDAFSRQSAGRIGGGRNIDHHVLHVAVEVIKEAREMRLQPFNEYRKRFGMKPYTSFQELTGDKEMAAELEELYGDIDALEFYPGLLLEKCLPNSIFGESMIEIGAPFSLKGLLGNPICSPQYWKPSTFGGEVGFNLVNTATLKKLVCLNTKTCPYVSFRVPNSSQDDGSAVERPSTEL
# COX-2 [3] = biological target: T2, COX-2 (Mus musculus, UniProt Q05769); conditions: cited from earlier work; for IC50: read-out: COX-2 IC50
# T2 construct: endogenous in cells
# T2 sequence (Q05769 18-604): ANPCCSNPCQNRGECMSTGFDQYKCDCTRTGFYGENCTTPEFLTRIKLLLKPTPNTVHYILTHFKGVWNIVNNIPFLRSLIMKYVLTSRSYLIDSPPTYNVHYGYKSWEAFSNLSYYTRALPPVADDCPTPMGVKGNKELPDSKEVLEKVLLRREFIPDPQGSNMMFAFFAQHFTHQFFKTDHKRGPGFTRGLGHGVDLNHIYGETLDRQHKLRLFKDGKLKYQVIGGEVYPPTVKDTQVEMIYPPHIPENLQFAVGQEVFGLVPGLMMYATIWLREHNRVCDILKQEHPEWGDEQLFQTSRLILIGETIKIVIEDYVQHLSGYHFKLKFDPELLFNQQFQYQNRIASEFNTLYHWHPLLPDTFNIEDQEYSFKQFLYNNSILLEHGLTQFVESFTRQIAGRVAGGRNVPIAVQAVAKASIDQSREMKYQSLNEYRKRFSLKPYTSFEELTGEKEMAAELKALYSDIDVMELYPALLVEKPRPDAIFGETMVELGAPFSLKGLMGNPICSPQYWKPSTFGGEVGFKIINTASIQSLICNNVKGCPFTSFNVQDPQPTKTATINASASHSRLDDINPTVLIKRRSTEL
# COX-1 [4] = biological target: COX-1 (Homo sapiens, UniProt P23219); conditions: recombinant human PGH synthesis; Laneuvill et al. 1994; cited from earlier work
# Sequence of COX-1 (Homo sapiens, UniProt P23219) (P23219 24-599): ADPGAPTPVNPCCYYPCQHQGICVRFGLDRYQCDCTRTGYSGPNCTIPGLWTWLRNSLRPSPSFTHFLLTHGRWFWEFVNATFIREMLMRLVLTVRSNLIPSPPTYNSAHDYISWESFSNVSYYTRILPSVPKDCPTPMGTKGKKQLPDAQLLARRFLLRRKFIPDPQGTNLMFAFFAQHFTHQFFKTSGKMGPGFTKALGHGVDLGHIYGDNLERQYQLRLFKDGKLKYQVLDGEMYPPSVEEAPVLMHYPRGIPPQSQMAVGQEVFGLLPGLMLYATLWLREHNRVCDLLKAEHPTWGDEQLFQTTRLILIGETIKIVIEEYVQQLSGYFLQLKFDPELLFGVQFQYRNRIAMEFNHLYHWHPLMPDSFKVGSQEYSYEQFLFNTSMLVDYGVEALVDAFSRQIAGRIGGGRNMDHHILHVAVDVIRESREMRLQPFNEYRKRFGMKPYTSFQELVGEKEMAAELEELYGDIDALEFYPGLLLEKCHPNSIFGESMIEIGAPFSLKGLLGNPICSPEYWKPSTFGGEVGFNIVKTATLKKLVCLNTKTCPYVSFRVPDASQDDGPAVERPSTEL
# COX-2 [5] = biological target: T3, COX-2 (Homo sapiens, UniProt P35354); conditions: cited from earlier work; for IC50: recombinant human PGH synthesis, Laneuvill et al. 1994, read-out: COX-2 IC50
# T3 sequence (P35354 18-604): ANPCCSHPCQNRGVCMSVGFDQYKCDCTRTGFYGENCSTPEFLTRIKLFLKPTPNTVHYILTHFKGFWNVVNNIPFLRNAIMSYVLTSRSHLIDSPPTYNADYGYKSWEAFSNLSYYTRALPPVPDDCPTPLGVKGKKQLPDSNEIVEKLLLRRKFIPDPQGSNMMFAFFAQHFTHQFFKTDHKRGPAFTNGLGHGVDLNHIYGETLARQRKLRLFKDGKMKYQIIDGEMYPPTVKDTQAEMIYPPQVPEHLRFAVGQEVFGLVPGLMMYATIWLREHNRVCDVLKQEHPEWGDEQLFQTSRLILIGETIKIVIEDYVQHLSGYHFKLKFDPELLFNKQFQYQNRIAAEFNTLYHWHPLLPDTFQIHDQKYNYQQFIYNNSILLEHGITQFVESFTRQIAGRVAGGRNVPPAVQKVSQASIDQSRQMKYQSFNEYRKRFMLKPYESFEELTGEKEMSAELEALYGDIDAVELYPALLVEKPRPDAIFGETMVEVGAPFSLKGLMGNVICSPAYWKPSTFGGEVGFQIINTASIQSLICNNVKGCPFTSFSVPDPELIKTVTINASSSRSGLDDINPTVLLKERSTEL
# [6] = test system: lymph node mononuclear cells from MAIDS and control mice; test: anti-CD3 induced T cell proliferation in mixed unsorted lymph node cells, compound added in vitro; assay type: cell-based, mouse
# Protocol: T cell activation was accomplished by cross-ligation of anti-CD3 (mAb 2C11; 4 μg/ml). […] Cells were cultured for 72 h during which [^3H] -thymidine was included for the last 4 h;
# T cell activation was accomplished by cross-ligation of anti-CD3 (mAb 2C11; 4 μg/ml). […] Cells were cultured for 72 h during which [^3H ]-thymidine was included for the last 4 h;
# The optimal concentration of antibody was titrated carefully in the initial setup and parallel experiments at several different dilutions of antibody was always performed. Proliferation was analyzed by incubating cells for 72 hours during which [^3H]-thymidine (0.4 μCi) was included for the last 4 hours and collected with a cell harvester (Skatron, Sterling, Va., USA) onto glass fiber filters. Incorporated precursor was counted in a scintillation analyzer (Tri-Carb, Packard, Meriden, Conn., USA). cAMP analogs, when used, were added 30 min prior to activation by addition of anti-CD3 antibodies.
# HIV infected patients = test: phase II clinical trial, indomethacin in vivo, T cell proliferation after activation; conditions: for T cell immune function, patients responding: 7 patients
# Protocol: T cell activation was accomplished by cross-ligation of anti-CD3 (mAb SpVT3b). […] Bars show mean values±SD from triplicate determinations. Cells were cultured for 72 h during which [^3H]-thymidine was included for the last 16 h;
# Mean values from triplicate determinations are plotted, connector lines show development of each patient;
# Peripheral blood CD3+ T cells were purified by negative selection from buffycoats from normal healthy donors (Ullevaal University Hospital Blood Center, Oslo, Norway). Briefly, peripheral blood mononuclear cells were isolated by density gradient (Lymphoprep, NycoMed, Oslo, Norway) centrifugation followed by negative selection using monodisperse magnetic beads directly coated with antibodies to CD14 and CD19 and rat anti-mouse IgG beads coated with antibodies to CD56 and a magnet. […] All steps were performed at 4° C.
# Proliferation assays were performed by incubation of 0.75×10^6 CD3+ T cells/ml in a 100 μl volume in flat-bottom 96-well microtiter plates. […] The optimal concentration of antibody was titrated carefully in the initial setup and parallel experiments at several different dilutions of antibody were always performed. Proliferation was analyzed by incubating cells for 72 hours during which [^3H]-thymidine was included for the last 16 hours. Cells were washed and harvested onto glass filters and subsequently analyzed by β-scintillation counting. CAMP analogs, when used, were added 30 min prior to activation by addition of anti-CD3 antibodies. 8-CPT-cAMP was from Sigma (St. Louis, Mo.).
# [7] = intact cell, bovine endothelial cells; Taketo 1998; read-out: COX-1 IC50; cited from earlier work
# [8] = intact cell, stimulated macrophages, Taketo 1998
structure (smiles),measurement,setting,value
CC(C(=O)O)c1ccc(-c2ccccc2)c(F)c1 (centres unmarked) [Flubiprofen],IC50,COX-1 [1]; [7],0.02 µM
CN1C(C(=O)Nc2ccccn2)=C(O)c2ccccc2S1(=O)=O [Piroxicam],IC50,COX-1 [2],0.00527 µM
O=C([O-])c1ccccc1O.[Na+] [Sodium salicylate],IC50,COX-1 [1]; [7],35 µM
same,IC50,COX-2 [3]; [8],100 µM
same,COX-2 selectivity COX-1/COX-2,"COX-2 [3]; ratio of IC50, intact cells",0.35
Cc1c(Cl)cccc1Nc1ccccc1C(=O)O [Tolfenamic acid],IC50,COX-1 [1]; [7],0.0003 µM
same,IC50,COX-2 [3]; [8],0.005 µM
same,COX-2 selectivity COX-1/COX-2,"COX-2 [3]; ratio of IC50, intact cells",0.06
COc1ccc2cc(CC(=O)O)ccc2c1 [6-MNA],IC50,COX-1 [4],64 µM
same,COX-2 selectivity COX-1/COX-2,"COX-2 [5]; ratio of IC50, recombinant human enzymes",0.7
same,IC50,COX-2 [5],93.5 µM
COc1ccc2c(c1)c(CC(=O)O)c(C)n2C(=O)c1ccc(Cl)cc1 [Indomethacin],"T cell proliferation, Indomethacin","[6]; MAIDS mice, median, n = 7, no anti-CD3",1412
same,"T cell proliferation, Indomethacin/Anti-CD3","[6]; MAIDS mice, median, n = 8, anti-CD3 plus indomethacin",15601**
same,effect on anti-CD3 induced proliferation,"[6]; control cultures of uninfected mice, indomethacin",did not alter proliferation
same,"T cell proliferation, Indomethacin/Anti-CD3","[6]; individual MAIDS mice, anti-CD3 plus indomethacin 50 ng/ml",19624 and 31830 and 42244 and 9381 and 47926 and 1345 and 11579 and 8545
same,"T cell proliferation, Indomethacin","[6]; individual MAIDS mice, no anti-CD3, indomethacin 50 ng/ml",2363 and 7316 and 1412 and 1129 and 265 and 335 and 4317
same,effect on anti-CD3 induced proliferation,"[6]; mixed lymph node cells of five MAIDS-infected mice, 72 h",strongly increased the proliferation of cells from five MAIDS-infected mice to levels comparable to that of control mice
same,IC50,COX-1 [2],0.00021 µM
same,"T cell immune function, patients responding","HIV infected patients; after 14 days of treatment, 25 mg three times a day",two of seven patients had clearly elevated T cell immune function
same,"T cell immune function, patients responding","HIV infected patients; two weeks after discontinuation, versus day 0",five of seven patients had elevated immune responsiveness
same,adverse events,"HIV infected patients; HIV patients, 50 mg 3 times a day",epigastrial pain and dyspepsia
same,increase of T cell responses after in vivo treatment,"HIV infected patients; patient 3, 25 mg three times a day perorally, 14 days, persisted to day 28",approximately 2.5 fold
same,T cell immune function after in vivo treatment,"HIV infected patients; patients 1 and 2, 25 mg three times a day perorally, 14 days",did not increase their immune function
CCCCC1C(=O)N(c2ccccc2)N(c2ccccc2)C1=O [Phenylbutazone],IC50,COX-2 [5],> 100 µM
O=C(O)Cc1ccccc1Nc1c(Cl)cccc1Cl [Diclofenac],IC50,COX-1 [2],0.000855 µM
CC(C(=O)O)c1ccc2c(c1)[nH]c1ccc(Cl)cc12 (centres unmarked) [Carprofen],IC50,"COX-1 [1]; read-out: COX-1 IC50; intact cell, bovine endothelial cells; Taketo 1998; cited from earlier work",3 µM
same,COX-2 selectivity COX-1/COX-2,COX-2 [3],1
same,IC50,COX-2 [3],3 µM
CC(=O)Nc1ccc(O)cc1 [Acetaminophen],IC50,COX-1 [1]; [7],2.7 µM
